In the NIST ThermoML archive (doi:10.1016/j.jct.2019.07.011):
± gives the expanded uncertainty stated by the source.

Experiment: xn = mol fraction of the nth substance listed
Conditions: Gas, Frequency=0.002 MHz, Spherical resonator

[He] [helium] + C
Conditions | speed of sound [m/s]
325 K, 5510.1 kPa, x2 = 0.95 | 474.34 ± 0.77
325 K, 6484.7 kPa, x2 = 0.8999 | 489.68 ± 0.8
325 K, 6498.1 kPa, x2 = 0.95 | 475.29 ± 0.78
325 K, 7001.3 kPa, x2 = 0.95 | 475.96 ± 0.78
325 K, 7483.3 kPa, x2 = 0.8999 | 491.54 ± 0.8
325 K, 7498.5 kPa, x2 = 0.95 | 476.75 ± 0.78
325 K, 8497.4 kPa, x2 = 0.8999 | 493.86 ± 0.8
325 K, 8512.5 kPa, x2 = 0.95 | 478.75 ± 0.78
325 K, 9494.2 kPa, x2 = 0.8999 | 496.64 ± 0.81
325 K, 9503.9 kPa, x2 = 0.95 | 481.25 ± 0.79
325 K, 10493 kPa, x2 = 0.8999 | 499.87 ± 0.81
325 K, 10502 kPa, x2 = 0.95 | 484.31 ± 0.79
325 K, 11469 kPa, x2 = 0.95 | 487.82 ± 0.8
325 K, 11475 kPa, x2 = 0.8999 | 503.57 ± 0.82
325 K, 12500 kPa, x2 = 0.8999 | 507.85 ± 0.83
325 K, 12517 kPa, x2 = 0.95 | 492.25 ± 0.8
325 K, 13295 kPa, x2 = 0.95 | 495.91 ± 0.81
325 K, 13503 kPa, x2 = 0.8999 | 512.52 ± 0.83
325 K, 14011 kPa, x2 = 0.95 | 499.58 ± 0.81
325 K, 14493 kPa, x2 = 0.8999 | 517.56 ± 0.84
325 K, 14716 kPa, x2 = 0.95 | 503.46 ± 0.82
325 K, 15294 kPa, x2 = 0.8999 | 521.98 ± 0.85
325 K, 15309 kPa, x2 = 0.95 | 506.94 ± 0.82
325 K, 15995 kPa, x2 = 0.8999 | 526.06 ± 0.85
325 K, 16003 kPa, x2 = 0.95 | 511.23 ± 0.83
325 K, 16485 kPa, x2 = 0.8999 | 529.05 ± 0.86
325 K, 16552 kPa, x2 = 0.95 | 514.81 ± 0.84
325 K, 16992 kPa, x2 = 0.8999 | 532.23 ± 0.86
325 K, 17002 kPa, x2 = 0.95 | 517.85 ± 0.84
325 K, 17513 kPa, x2 = 0.95 | 521.43 ± 0.85
325 K, 17520 kPa, x2 = 0.8999 | 535.66 ± 0.87
325 K, 17961 kPa, x2 = 0.95 | 524.66 ± 0.85
325 K, 17995 kPa, x2 = 0.8999 | 538.81 ± 0.87
325 K, 18490 kPa, x2 = 0.8999 | 542.22 ± 0.88
325 K, 18521 kPa, x2 = 0.95 | 528.85 ± 0.86
325 K, 18993 kPa, x2 = 0.8999 | 545.76 ± 0.88
325 K, 19024 kPa, x2 = 0.95 | 532.71 ± 0.86
325 K, 19504 kPa, x2 = 0.8999 | 549.41 ± 0.89
325 K, 19536 kPa, x2 = 0.95 | 536.75 ± 0.87
325 K, 19906 kPa, x2 = 0.8999 | 552.38 ± 0.9
350 K, 476.77 kPa, x2 = 0.95 | 491.9 ± 0.8
350 K, 489.4 kPa, x2 = 0.8999 | 503.05 ± 0.82
350 K, 985.81 kPa, x2 = 0.95 | 491.68 ± 0.8
350 K, 990 kPa, x2 = 0.8999 | 503.09 ± 0.82
350 K, 1981.5 kPa, x2 = 0.8999 | 503.39 ± 0.82
350 K, 1988.5 kPa, x2 = 0.95 | 491.41 ± 0.8
350 K, 3476.8 kPa, x2 = 0.8999 | 504.31 ± 0.82
350 K, 3557.7 kPa, x2 = 0.95 | 491.72 ± 0.8
350 K, 4993.3 kPa, x2 = 0.8999 | 506.12 ± 0.82
350 K, 5005.4 kPa, x2 = 0.95 | 492.68 ± 0.8
350 K, 6484 kPa, x2 = 0.8999 | 508.51 ± 0.83
350 K, 6520.9 kPa, x2 = 0.95 | 494.52 ± 0.81
350 K, 7487.6 kPa, x2 = 0.8999 | 510.6 ± 0.83
350 K, 8493.7 kPa, x2 = 0.8999 | 513.01 ± 0.83
350 K, 8537.3 kPa, x2 = 0.95 | 498.36 ± 0.81
350 K, 9502.1 kPa, x2 = 0.8999 | 515.83 ± 0.84
350 K, 10503 kPa, x2 = 0.8999 | 518.95 ± 0.84
350 K, 10534 kPa, x2 = 0.95 | 503.83 ± 0.82
350 K, 11996 kPa, x2 = 0.8999 | 524.33 ± 0.85
350 K, 12032 kPa, x2 = 0.95 | 509.02 ± 0.83
350 K, 13418 kPa, x2 = 0.95 | 514.87 ± 0.84
350 K, 13498 kPa, x2 = 0.8999 | 530.47 ± 0.86
350 K, 14498 kPa, x2 = 0.8999 | 535.04 ± 0.87
350 K, 14519 kPa, x2 = 0.95 | 519.93 ± 0.84
350 K, 15505 kPa, x2 = 0.8999 | 539.96 ± 0.88
350 K, 15599 kPa, x2 = 0.95 | 525.36 ± 0.85
350 K, 16500 kPa, x2 = 0.8999 | 545.16 ± 0.88
350 K, 16626 kPa, x2 = 0.95 | 530.93 ± 0.86
350 K, 17495 kPa, x2 = 0.8999 | 550.65 ± 0.89
350 K, 17512 kPa, x2 = 0.95 | 536.05 ± 0.87
350 K, 18437 kPa, x2 = 0.95 | 541.71 ± 0.88
350 K, 18509 kPa, x2 = 0.8999 | 556.57 ± 0.9
350 K, 19237 kPa, x2 = 0.95 | 546.81 ± 0.89
350 K, 19509 kPa, x2 = 0.8999 | 562.67 ± 0.91
350 K, 20020 kPa, x2 = 0.95 | 552 ± 0.89
350 K, 20352 kPa, x2 = 0.8999 | 568.05 ± 0.92
350 K, 20966 kPa, x2 = 0.95 | 558.46 ± 0.9
375 K, 480.89 kPa, x2 = 0.8999 | 517.61 ± 0.84
375 K, 508.08 kPa, x2 = 0.95 | 506.89 ± 0.82
375 K, 970.3 kPa, x2 = 0.95 | 506.94 ± 0.82
375 K, 974.52 kPa, x2 = 0.8999 | 518 ± 0.84
375 K, 1977.8 kPa, x2 = 0.8999 | 518.72 ± 0.84
375 K, 1994.9 kPa, x2 = 0.95 | 507.23 ± 0.82
375 K, 2982.4 kPa, x2 = 0.8999 | 519.78 ± 0.84
375 K, 3486.1 kPa, x2 = 0.95 | 508.11 ± 0.83
375 K, 4474.8 kPa, x2 = 0.8999 | 521.69 ± 0.85
375 K, 4994.3 kPa, x2 = 0.95 | 509.68 ± 0.83
375 K, 5993.9 kPa, x2 = 0.8999 | 524.5 ± 0.85
375 K, 6507.4 kPa, x2 = 0.95 | 511.94 ± 0.83
375 K, 7482.9 kPa, x2 = 0.8999 | 527.66 ± 0.86
375 K, 8485.9 kPa, x2 = 0.8999 | 530.3 ± 0.86
375 K, 8534.5 kPa, x2 = 0.95 | 516.24 ± 0.84
375 K, 9494.9 kPa, x2 = 0.8999 | 533.16 ± 0.86
375 K, 10491 kPa, x2 = 0.8999 | 536.22 ± 0.87
375 K, 10526 kPa, x2 = 0.95 | 521.64 ± 0.85
375 K, 11482 kPa, x2 = 0.8999 | 539.61 ± 0.88
375 K, 12041 kPa, x2 = 0.95 | 526.64 ± 0.85
375 K, 12500 kPa, x2 = 0.8999 | 543.46 ± 0.88
375 K, 13432 kPa, x2 = 0.95 | 531.87 ± 0.86
375 K, 13465 kPa, x2 = 0.8999 | 547.3 ± 0.89
375 K, 14475 kPa, x2 = 0.8999 | 551.75 ± 0.89
375 K, 14510 kPa, x2 = 0.95 | 536.35 ± 0.87
375 K, 15493 kPa, x2 = 0.8999 | 556.41 ± 0.9
375 K, 15609 kPa, x2 = 0.95 | 541.3 ± 0.88
375 K, 16440 kPa, x2 = 0.8999 | 560.93 ± 0.91
375 K, 16573 kPa, x2 = 0.95 | 545.93 ± 0.88
375 K, 17490 kPa, x2 = 0.8999 | 566.34 ± 0.92
375 K, 17518 kPa, x2 = 0.95 | 550.72 ± 0.89
375 K, 18172 kPa, x2 = 0.8999 | 569.92 ± 0.92
375 K, 18322 kPa, x2 = 0.95 | 555.02 ± 0.9
375 K, 18705 kPa, x2 = 0.8999 | 572.84 ± 0.93
375 K, 19198 kPa, x2 = 0.95 | 559.9 ± 0.91
